Results on eleven molecules are retold here after ChEMBL document CHEMBL1201862, “PubChem BioAssay data set” (2004).

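Tested at 5 concentrations; 48 h exposure; 96-well plates; endpoints linearly interpolated, else capped at highest concentration. At the GI50, growth is halved.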 Activity calls are given as the source filed them. Rule as the data show it: active = GI50 up to about 1.1 µM and inactive = higher. Some results are limits rather than exact numbers.

Test in all cases: NCI anticancer screen, dose series, 48 h
Experiment [1] deals with 786-0.
In experiment [2] the test system is CAKI-1.
For experiment [3], the system named is CCRF-CEM.
The test system of experiment [4] is COLO 205.
Experiment [5] deals with EKVX.
Experiment [6] relates to HCT-15.
Experiment [7] concerns HL-60.
Experiment [8] concerns HT-29.
In experiment [9] the test system is IGROV-1.
Experiment [10] has as its system M14.
Experiment [11] has as its system Malme-3M.
In experiment [12] the test system is NCI-H226.
Experiment [13] has as its system NCI-H460.
Experiment [14] deals with OVCAR-3.
The subject of experiment [15] is OVCAR-4.
Experiment [16] deals with RPMI-8226.
The subject of experiment [17] is SNB-19.
The subject of experiment [18] is TK-10.

Turning to `OC12c3ccccc3C3CCC4(OCCO4)C3C1c1ccccc12` (centres undefined), the GI50 was > 100 µM (inactive) in experiment [1]; > 100 µM (inactive) in experiment [2]; > 100 µM (inactive) in [3]; > 100 µM (inactive) in experiment [4]; > 100 µM (inactive) in [5]; > 100 µM in experiment [6]. Moreover, the GI50 is > 100 µM (inactive) in experiment [7]; 94.2 µM (inactive) in experiment [8]; 61.8 µM (inactive) in [9]; > 100 µM (inactive) in experiment [10]; > 100 µM (inactive) in experiment [11]; > 100 µM (inactive) in [12]. Further, the GI50 in experiment [13] is > 100 µM (inactive); in experiment [14], > 100 µM (inactive); in [15] it was > 100 µM (inactive); in experiment [16], 64 µM (inactive); in experiment [17], > 100 µM (inactive); in [18], 83.2 µM (inactive).
Regarding `CC(=O)OC(C)(C)[C@@H]1CC[C@]2(C)/C=C/[C@H](C)C[C@@H](O)C3=C(C)C[C@@H](O3)C12` (some centres undefined), the GI50 is > 100 µM (inactive) in experiment [1]; > 100 µM (inactive) in [2]; > 100 µM (inactive) in experiment [3]; > 100 µM (inactive) in experiment [4]; > 100 µM (inactive) in experiment [5]; > 100 µM in experiment [6]. In addition, the GI50 in experiment [7] is > 100 µM (inactive); in experiment [8], > 100 µM (inactive); in experiment [9], > 100 µM (inactive); in [10] it was > 100 µM (inactive); in experiment [11], > 100 µM (inactive); in experiment [12], 49.1 µM (inactive). In addition, the GI50 in [13], in [14], in [15], in [16], in experiment [17] and in [18] was > 100 µM (inactive) in each case.
On to `O=c1sc(-c2nc3ccccc3[nH]2)c(/N=C/c2ccccc2)n1-c1ccccc1`, for which the GI50 is 42.9 µM (inactive) in experiment [1]; > 100 µM (inactive) in [2]; > 100 µM (inactive) in experiment [3]; 56.4 µM (inactive) in experiment [4]; > 100 µM (inactive) in [5]; 74.1 µM in experiment [6]. In addition, the GI50 in experiment [7] is > 100 µM (inactive); in [8], > 100 µM (inactive); in [9] it was 97.7 µM (inactive); in [10], 48.9 µM (inactive); in experiment [11] it was 92.7 µM (inactive); in [12], 15.4 µM (inactive). The GI50 in experiment [14] was 25.6 µM (inactive); in [15], 6.12 µM (inactive); in [16] it was > 100 µM (inactive); in [17], 53.7 µM (inactive); in experiment [18] it was 62.8 µM (inactive).
`CC1C(=O)O[C@H]2C1CC[C@@]1(C)[C@H](O)CC[C@@]13C[C@]2(O)OO3` (some centres undefined): the GI50 is > 100 µM (inactive) in experiment [1]; > 100 µM (inactive) in experiment [2]; > 100 µM (inactive) in experiment [3]; > 100 µM (inactive) in experiment [4]; > 100 µM in [6]; > 100 µM (inactive) in [7]. For the same molecule, the GI50 in experiment [8], in experiment [9], in experiment [10], in experiment [11], in experiment [12] and in [13] was > 100 µM (inactive) each time. Moreover, the GI50 in experiment [14], in experiment [15], in experiment [16], in experiment [17] and in experiment [18] was > 100 µM (inactive) in each case.
For the molecule `COc1ccc(CNc2cnc3ccc(N)cc3n2)cc1OC`, the GI50 was > 100 µM (inactive) in experiment [1]; > 100 µM (inactive) in experiment [2]; > 100 µM (inactive) in [3]; 60 µM (inactive) in [4]; > 100 µM (inactive) in [5]; > 100 µM in experiment [6]. The GI50 in experiment [7], in experiment [8], in experiment [10], in [11], in experiment [12] and in experiment [13] was > 100 µM (inactive) in each case. Further, the GI50 was > 100 µM (inactive) in experiment [14]; > 100 µM (inactive) in [15]; > 100 µM (inactive) in experiment [16]; > 100 µM (inactive) in experiment [17]; 64.6 µM (inactive) in [18].
Take `CN(C)c1ccc(/C=C/c2ccc(/C=C/c3ccc(N(C)C)cc3)cc2)cc1`: the GI50 in [1] is > 100 µM (inactive); in experiment [2] it was > 100 µM (inactive); in experiment [3], > 100 µM (inactive); in [4], > 100 µM (inactive); in [5], > 100 µM (inactive); in [6], > 100 µM. For the same molecule, the GI50 in experiment [7] is > 100 µM (inactive); in experiment [8], > 100 µM (inactive); in experiment [9], > 100 µM (inactive); in experiment [10] it was > 100 µM (inactive); in [11] it was 13 µM (inactive); in experiment [12], 81.8 µM (inactive). Moreover, the GI50 in experiment [13] is > 100 µM (inactive); in [14], > 100 µM (inactive); in experiment [15], > 100 µM (inactive); in experiment [16], 63.8 µM (inactive); in experiment [17] it was 78.5 µM (inactive); in experiment [18], > 100 µM (inactive).
As to `N#CCCN(C1=NN(C(=O)CC(=O)Nc2ccc(Cl)cc2)C(c2ccccc2)C1)c1ccc(Cl)cc1` (centres undefined), the GI50 in [1] is > 100 µM (inactive); in [2], > 100 µM (inactive); in experiment [3] it was > 100 µM (inactive); in experiment [4], > 100 µM (inactive); in experiment [5], > 100 µM (inactive); in [6] it was > 100 µM. Moreover, the GI50 in experiment [7], in experiment [8], in experiment [9], in experiment [10], in experiment [11] and in experiment [12] was > 100 µM (inactive) throughout. The GI50 in experiment [13], in experiment [14], in [15], in experiment [16], in [17] and in experiment [18] was > 100 µM (inactive) each time.
For the molecule `CN(CCS(=O)(=O)N1C(=O)C2CCCN2C(=O)[C@@H]1Cc1ccccc1)C(=O)OCc1ccccc1` (some centres undefined), the GI50 in experiment [1] was > 100 µM (inactive); in [2], 44.4 µM (inactive); in experiment [3] it was 33 µM (inactive); in [4], 58.5 µM (inactive); in experiment [5] it was 30.9 µM (inactive); in experiment [6], 58.6 µM. In addition, the GI50 in experiment [7] is 10.7 µM (inactive); in [8], 47.4 µM (inactive); in experiment [9], > 100 µM (inactive); in experiment [10], 45.6 µM (inactive); in [11], 65 µM (inactive); in [12] it was 37.8 µM (inactive). The GI50 was 47.4 µM (inactive) in experiment [13]; 32.6 µM (inactive) in [14]; 68.4 µM (inactive) in experiment [15]; 15.1 µM (inactive) in experiment [16]; 41.6 µM (inactive) in [17]; 73.3 µM (inactive) in experiment [18].
On to `Cc1c(C(=O)CC(=O)C(=O)Nc2cccc(C(F)(F)F)c2)[n+]([O-])c2ccccc2[n+]1[O-]`, for which the GI50 in experiment [1] is 5.79 µM (inactive); in experiment [2] it was 6.47 µM (inactive); in experiment [3], 2.51 µM (inactive); in [4], 3.33 µM (inactive); in experiment [5], 5.07 µM (inactive); in experiment [6], 3.31 µM. Moreover, the GI50 in experiment [7] was 3.08 µM (inactive); in [8], 3.79 µM (inactive); in [9], 2.74 µM (inactive); in [10], 3.37 µM (inactive); in experiment [11], 4.22 µM (inactive); in experiment [12], 30.8 µM (inactive). In addition, the GI50 in experiment [13] was 2.97 µM (inactive); in experiment [14], 1.66 µM (inactive); in [15], 2.42 µM (inactive); in [16], 3.07 µM (inactive); in [17], 4.88 µM (inactive); in [18], 28.2 µM (inactive).
Consider `Cc1cc(N(CCC#N)CCC#N)ccc1CC1N=C(c2ccccc2)OC1=O` (centres undefined), for which the GI50 is > 100 µM (inactive) in experiment [1]; > 100 µM (inactive) in [2]; > 100 µM (inactive) in experiment [3]; > 100 µM (inactive) in experiment [4]; > 100 µM (inactive) in experiment [5]; > 100 µM in experiment [6]. Moreover, the GI50 in experiment [7] was > 100 µM (inactive); in experiment [8], > 100 µM (inactive); in experiment [9], > 100 µM (inactive); in [10], > 100 µM (inactive); in experiment [11], > 100 µM (inactive); in experiment [12], 64.1 µM (inactive). In addition, the GI50 in [13], in experiment [14], in [15], in experiment [16], in experiment [17] and in experiment [18] was > 100 µM (inactive) throughout.
As to `O=C(COc1ccc(Br)cc1Br)N1N=C(c2ccc([N+](=O)[O-])o2)CC1(O)c1ccccc1` (centres undefined), the GI50 in experiment [1] is 15.6 µM (inactive); in experiment [2], 14.5 µM (inactive); in [3], 3.13 µM (inactive); in experiment [4], 2.7 µM (inactive); in [5], 2.79 µM (inactive); in experiment [6], 6.19 µM. For the same molecule, the GI50 is 3.12 µM (inactive) in experiment [7]; 13.4 µM (inactive) in [8]; 19.5 µM (inactive) in experiment [9]; 10.1 µM (inactive) in [10]; 10.7 µM (inactive) in [11]; 18.2 µM (inactive) in experiment [12]. Further, the GI50 in experiment [13] is 6.24 µM (inactive); in [14], 3.93 µM (inactive); in experiment [15], 17 µM (inactive); in experiment [16] it was 2.11 µM (inactive); in experiment [17] it was 19.3 µM (inactive).
